Target: GAR transformylase (Sus scrofa)
Assay: In vitro inhibition of hog liver GAR transformylase with (6R)-10-formyl-FH4 as cofactor

Compound | IC50 [µM]
Nc1nc(N)c(CCCNc2ccc(C(=O)NC(CCC(=O)O)C(=O)O)cc2F)c(=O)[nH]1 (centres undefined) | 3.5
Nc1nc[nH]c(=O)c1CCCNc1ccc(C(=O)NC(CCC(=O)O)C(=O)O)cc1 (centres undefined) | 52
Cc1cc(C(=O)NC(CCC(=O)O)C(=O)O)ccc1NCCCc1c(N)nc(N)[nH]c1=O (centres undefined) | 6.1
Nc1nc(N)c(CCCCNc2ccc(C(=O)NC(CCC(=O)O)C(=O)O)cc2)c(=O)[nH]1 (centres undefined) | 18.2
Nc1nc(N)c(CCCSc2ccc(C(=O)NC(CCC(=O)O)C(=O)O)cc2)c(=O)[nH]1 (centres undefined) | 2.6
Nc1nc(N)c(CCCNc2ccc(C(=O)NC(CCC(=O)O)C(=O)O)c(Cl)c2)c(=O)[nH]1 (centres undefined) | 6.6
Nc1nc(N)c(CCCNc2ccc(C(=O)NC(CCC(=O)O)C(=O)O)c(F)c2)c(=O)[nH]1 (centres undefined) | 3.1
Nc1nnc(C2CCN(c3ccc(C(=O)NC(CCC(=O)O)C(=O)O)cc3)C2=O)c(=O)[nH]1 (centres undefined) | > 100
Nc1nc(N)c(CCCOc2ccc(C(=O)NC(CCC(=O)O)C(=O)O)cc2)c(=O)[nH]1 (centres undefined) | 5.3

From BindingDB's records for doi:10.1021/jm00086a008 (Wellcome Research Laboratories, 1992)
